Source: US20250235455A1, “AQUEOUS TICAGRELOR SOLUTIONS, METHOD OF MANUFACTURING AND USES” (HYLORIS DEVELOPMENTS SA, priority 2022, published 2025)
≈ marks a conversion by molar mass, not a printed value. Like-named read-outs stand apart in the source and are kept apart here.

Key:
Type in all cases: physicochemical
[1] = Maximum solubility of ticagrelor in HPβCD solution without heat; conditions: aqueous with cosolvent or surfactant or cyclodextrin, read-out: Ticagrelor mg/ml (maximum solubility)
Text: In a further example, the maximum solubility of ticagrelor in an HPβCD solution, without the use of heat, was investigated.

[2] = Solubility of ticagrelor in aqueous vitamin E TPGS solutions
Method: Aqueous ticagrelor solutions were prepared using vitamin E TPGS as solubilizer for ticagrelor. Water soluble vitamin E TPGS was added to water to obtain different concentrations of 2.5 and 5.0 and 10.0 w/v % aqueous vitamin E TPGS solutions. To these solutions, kept at a temperate of 45° C.+/−5° C., portions of ticagrelor were gradually added.
In the experiment summarized in Table 29, 3 mg ticagrelor portions were added step-by-step to a 50 ml aqueous vitamin E TPGS solution (1st stage).
20 ml of each diluent were then used in a 2nd stage study. To 20 ml of each diluent 10 mg ticagrelor portions were added. This was reduced to 5 mg when the dissolution was taking longer.

[3] = Clear aqueous ticagrelor-cyclodextrin solutions considering 65 mg dose; conditions: using 20-40% w/w HPβCD
[4] = Impact of buffer strength on pH, osmolality, assay and impurities
Method: In addition, a screening was conducted on the impact of buffer strength on pH and osmolality.

[5] = Impact of ticagrelor particle size on dissolution
Text: Two different particle size diameters for the ticagrelor active ingredient were screened, 5.5 and 15 micrometers. The pH and osmolality were not affected.

Flocculation test = test: Flocculation test
[6] = Storage stability of ticagrelor 6 mg/ml in HPβCD 40% w/w, phosphate buffer pH 7.5, at 40° C. and 75% RH
Text: A Gradient HPLC method was used to analyze impurities in formulations using a YMC-Pack Pro C18 column (100×4.6 mm, S-3 μm 12 nm). Good separation was obtained for all the impurities. • Amine impurity: (1S,2S,3R,5S)-3-(7-amino-5-(propylsulfanyl)-3H-[1,2,3]triazolo[4,5-d]pyrimidin-3-yl)-5-(2-hydroxyethoxy)cyclopentane-1,2-diol. This is a process related degradant impurity. • Regiomer impurity: (1S, 2S, 3R, 5S)-3-((3-((1R,2S)-2-(3,4-Difluorophenyl)cyclopropyl)-5-(propylsulfanyl)-3H-[1,2,3]triazolo[4,5-d]pyrimidin-7-yl)amino)-5-(2-hydroxyethoxy)cyclopentane-1,2-diol. This is a process related degradant impurity. • Acetal impurity: 2-[[(3aR,4S,6S,6aS)-6-[7-[1R,2S)-2-(3,4-difluorophenyl)-cyclopropyl]amino]-5-(propylsulfanyl)-3H-[1,2,3]triazolo-[4,5-d]pyrimidin-3-yl]-2,2-dimethyltetrahydro-2H-3aHcyclopenta[d][1,3]dioxol-4-yl]oxy]ethan-1-ol.
First HPβCD was dissolved in a phosphate buffer solution of pH 7.5 prepared separately in water. […] The solution was filtered through a 0.22 micrometer filter and filled in USP Type I amber colored glass vials. The vials were stoppered and stored. All precautions were taken during manufacturing, such as N2 purging and avoiding direct exposure to light.

[7] = Phosphate buffer pH 7.5 strength 0.19 mM
[8] = Phosphate buffer pH 7.5 strength 5 mM
[9] = Phosphate buffer pH 7.5 strength 10 mM
[10] = Phosphate buffer pH 7.5 strength 19 mM
[11] = pH 7.5, T = 4 weeks, 40° C./75% RH
[12] = pH 7.5, T = 8 weeks, 40° C./75% RH
[13] = pH 7.5, T = 12 weeks, 40° C./75% RH
[14] = pH 7.5, T = 24 Weeks, 40° C./75% RH

Q: What does the source list for `CCCSc1nc(N[C@@H]2C[C@H]2c2ccc(F)c(F)c2)c2nnn([C@@H]3C[C@H](OCCO)[C@@H](O)[C@H]3O)c2n1` [Ticagrelor, (1S,2S,3R,5S)-3-{7-[(1R,2S)-2-(3,4-difluorophenyl)cyclopropylamino]5-(propylthio)-3H-(1,2,3)triazolo (4,5-D)pyrimidin-3-yl}-5-(2 hydroxyethoxy)cyclopentane-1,2-diol]?
A: solubility ([1]; HPβCD solution 17% w/w, HPβCD 17% w/W): 4 mg/mL (≈ 7.65 mM); solubility ([1]; HPβCD solution 22.5% w/w, HPβCD 22.5% w/W): 5 mg/mL (≈ 9.57 mM); solubility ([1]; HPβCD solution 30% w/w, HPβCD 30% w/W): 8 mg/mL (≈ 15.3 mM); solubility ([1]; HPβCD solution 33% w/w, HPβCD 33% w/W): 9 mg/mL (≈ 17.2 mM); solubility ([1]; HPβCD solution 40% w/w, HPβCD 40% w/W): 13 mg/mL (≈ 24.9 mM); Time for 10 mg ticagrelor to dissolve [2]: 5 to 10 min; Ticagrelor solution concentration achieved [3]: 5 to 13 mg/mL; Osmolality sample ([4]; Phosphate buffer pH 7.5): 809 mOsm/kg; Assay [4, 7]: 102.23%; Total Impurities [4, 7]: 0.42%; pH sample [4, 7]: 7.18; Assay [4, 8]: 100.49%; Osmolality sample [4, 8]: 703 mOsm/kg; Total Impurities [4, 8]: 0.40%; pH sample [4, 8]: 7.66; Assay [4, 9]: 102.98%; Osmolality sample [4, 9]: 724 mOsm/kg; Total Impurities [4, 9]: 0.42%; pH sample [4, 9]: 7.69; Assay [4, 10]: 102.58%; Osmolality sample [4, 10]: 758 mOsm/kg; Total Impurities [4, 10]: 0.42%; pH sample [4, 10]: 7.70; Dissolution time ([5]; D90 5.5 μm, micronized): 33 min; Osmolality ([5]; D90 5.5 μm, micronized): 751 mOsm/kg; pH ([5]; D90 5.5 μm, micronized): 7.68; Dissolution time ([5]; D90 15 μm, unmicronized): 125 min; Osmolality ([5]; D90 15 μm, unmicronized): 753 mOsm/kg; pH ([5]; D90 15 μm, unmicronized): 7.70; Flocculation test (Flocculation test; HPβCD 25% w/w, ticagrelor 5 mg/ml): did not pass; Flocculation test (Flocculation test; HPβCD 30% w/w, ticagrelor 5 mg/ml): passed; Flocculation test (Flocculation test; HPβCD 35% w/w, ticagrelor 5 mg/ml): passed; Flocculation test (Flocculation test; HPβCD 35% w/w, ticagrelor 10 mg/ml): did not pass; Flocculation test (Flocculation test; HPβCD 40% w/w, ticagrelor 5 mg/ml): passed; Flocculation test (Flocculation test; HPβCD 40% w/w, ticagrelor 10 mg/ml): passed; Flocculation test (Flocculation test; SBECD 40% w/w, ticagrelor 5 mg/ml): passed; Storage stability ([6]; 40° C. and 75% Relative Humidity): good storage stability; Acetal impurity ([6]; pH 7.5, T = 0): 0.05%; Amine impurity ([6]; pH 7.5, T = 0): 0.04%; Assay Ticagrelor ([6]; pH 7.5, T = 0): 104.27%; Regiomer impurity ([6]; pH 7.5, T = 0): 0.00%; Sum Impurities >0.05 ([6]; pH 7.5, T = 0): 0.11%; Total Impurities ([6]; pH 7.5, T = 0): 0.31%; Triol impurity ([6]; pH 7.5, T = 0): 0.04%; Acetal impurity [6, 11]: 0.05%; Amine impurity [6, 11]: 0.05%; Assay Ticagrelor [6, 11]: 104.47%; Regiomer impurity [6, 11]: 0.01%; Sum Impurities >0.05 [6, 11]: 0.14%; Total Impurities [6, 11]: 0.32%; Triol impurity [6, 11]: 0.05%; Acetal impurity [6, 12]: 0.05%; Amine impurity [6, 12]: 0.05%; Assay Ticagrelor [6, 12]: 102.59%; Regiomer impurity [6, 12]: 0.04%; Sum Impurities >0.05 [6, 12]: 0.15%; Total Impurities [6, 12]: 0.29%; Triol impurity [6, 12]: 0.05%; Acetal impurity [6, 13]: 0.05%; Amine impurity [6, 13]: 0.05%; Assay Ticagrelor [6, 13]: 102.31%; Regiomer impurity [6, 13]: 0.08%; Sum Impurities >0.05 [6, 13]: 0.23%; Total Impurities [6, 13]: 0.41%; Triol impurity [6, 13]: 0.04%; Acetal impurity [6, 14]: 0.05%; Amine impurity [6, 14]: 0.07%; Assay Ticagrelor [6, 14]: 104.39%; Regiomer impurity [6, 14]: 0.16%; Sum Impurities >0.05 [6, 14]: 0.33%; Total Impurities [6, 14]: 0.35%; Triol impurity [6, 14]: 0.05%
